Legend:
Conditions in all cases: 48 h
[1] = system: NOMO1; assay: cell viability relative to DMSO control; higher = less cytotoxic
Outline: (§1)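 Viability is a per-plate percentage relative to DMSO wells, with cell-free wells as background. CellTiter-Glo One luminescence was read after 48 h at 37°C on 1536-well plates (5 μl) of NOMO1 or SEM (500 cells/well) or P12-Ichikawa (1000 cells/well) leukemia cells. The cells had been adapted for at least four passages in each medium and pin-dosed with library compounds in DMSO from 47 μM to 0.79 nM in 11 threefold steps.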

[2] = system: P12-Ichikawa; assay: as above
Outline: as §1

[3] = system: SEM cells; assay: as above
Outline: as §1

[4] = system: NOMO1; assay: AUC of viability dose-response curve (% viability x log10 dose units); higher = less sensitive
Outline: (§2)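 Over 48 h at 37°C, leukemia cells in 1536-well plates (500 or 1000 cells/well), adapted to each medium, received library compounds in DMSO at 11 threefold doses from 47 μM to 0.79 nM. CellTiter-Glo One luminescence, normalised per plate to DMSO and cell-free wells, was fitted by a four-parameter log-logistic function of log10 dose. The area under the curve was then integrated by trapezoidal rule, after scaling curves above full viability and removing those that failed quality control.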

[5] = system: P12-Ichikawa; assay: as above
Outline: as §2

CCN(CC)CCNC(=O)c1c(C)[nH]c(/C=C2\C(=O)Nc3ccc(F)cc32)c1C
cell viability [%]
Conditions | [1] | [2] | [3]
HPLM + 10% dialyzed FBS, 0.000781 µM | 79.5 | 106 | 48
HPLM + 10% dialyzed FBS, 0.00234 µM | 103 | 102 | 47.3
HPLM + 10% dialyzed FBS, 0.00702 µM | 109 | 106 | 43.4
HPLM + 10% dialyzed FBS, 0.0211 µM | 124 | 103 | 53
HPLM + 10% dialyzed FBS, 0.0632 µM | 87.1 | 104 | 41.8
HPLM + 10% dialyzed FBS, 0.19 µM | 23.4 | 36.8 | 13
HPLM + 10% dialyzed FBS, 0.569 µM | 30.7 | 21.5 | 9.03
HPLM + 10% dialyzed FBS, 1.71 µM | 23 | 6.34 | 6.26
HPLM + 10% dialyzed FBS, 5.12 µM | 29.1 | 9.77 | 5.73
HPLM + 10% dialyzed FBS, 15.4 µM | 6.81 | 3.45 | 4.36
HPLM + 10% dialyzed FBS, 46.1 µM | 4.98 | 2.39 | 4.22
RPMI 5 mM glucose + 10% FBS, 0.000781 µM | 106 | 106 | 72.7
RPMI 5 mM glucose + 10% FBS, 0.00234 µM | 103 | 105 | 66.3
RPMI 5 mM glucose + 10% FBS, 0.00702 µM | 109 | 114 | 58.1
RPMI 5 mM glucose + 10% FBS, 0.0211 µM | 113 | 103 | 57
RPMI 5 mM glucose + 10% FBS, 0.0632 µM | 115 | 118 | 34.1
RPMI 5 mM glucose + 10% FBS, 0.19 µM | 45.5 | 58.8 | 10.6
RPMI 5 mM glucose + 10% FBS, 0.569 µM | 16.1 | 34.1 | 9.65
RPMI 5 mM glucose + 10% FBS, 1.71 µM | 21.9 | 12.6 | 6.37
RPMI 5 mM glucose + 10% FBS, 5.12 µM | 24.7 | 14.6 | 5.9
RPMI 5 mM glucose + 10% FBS, 15.4 µM | 11.5 | 4.54 | 3.85
RPMI 5 mM glucose + 10% FBS, 46.1 µM | 3.98 | 2.44 | 4.31
RPMI 5 mM glucose + 10% dialyzed FBS, 0.000781 µM | 97.7 | 114 | 52.8
RPMI 5 mM glucose + 10% dialyzed FBS, 0.00234 µM | 110 | 113 | 42.7
RPMI 5 mM glucose + 10% dialyzed FBS, 0.00702 µM | 100 | 109 | 42.2
RPMI 5 mM glucose + 10% dialyzed FBS, 0.0211 µM | 117 | 112 | 44.5
RPMI 5 mM glucose + 10% dialyzed FBS, 0.0632 µM | 117 | 113 | 27.6
RPMI 5 mM glucose + 10% dialyzed FBS, 0.19 µM | 43.1 | 51.3 | 9.68
RPMI 5 mM glucose + 10% dialyzed FBS, 0.569 µM | 22.3 | 31 | 9.05
RPMI 5 mM glucose + 10% dialyzed FBS, 1.71 µM | 25.9 | 12.2 | 6.13
RPMI 5 mM glucose + 10% dialyzed FBS, 5.12 µM | 31.8 | 14.3 | 5.9
RPMI 5 mM glucose + 10% dialyzed FBS, 15.4 µM | 11.3 | 4.09 | 3.85
RPMI 5 mM glucose + 10% dialyzed FBS, 46.1 µM | 3.82 | 2.75 | 3.99

AUC of viability dose-response curve
Conditions | HPLM + 10% dialyzed FBS | RPMI 5 mM glucose + 10% FBS | RPMI 5 mM glucose + 10% dialyzed FBS
[4] | 257 | 265 | 271
[5] | 248 | 266 | 257

CCCCc1ccc2[nH]c(NC(=O)OC)nc2c1
cell viability [%]
Conditions | [1] | [2] | [3]
HPLM + 10% dialyzed FBS, 0.000781 µM | 108 | 104 | 75.4
HPLM + 10% dialyzed FBS, 0.00234 µM | 103 | 106 | 92.3
HPLM + 10% dialyzed FBS, 0.00702 µM | 106 | 105 | 98.4
HPLM + 10% dialyzed FBS, 0.0211 µM | 111 | 101 | 79.4
HPLM + 10% dialyzed FBS, 0.0632 µM | 95.3 | 85.9 | 72.3
HPLM + 10% dialyzed FBS, 0.19 µM | 37.6 | 22.9 | 26.6
HPLM + 10% dialyzed FBS, 0.569 µM | 31.9 | 18.4 | 25.9
HPLM + 10% dialyzed FBS, 1.71 µM | 33.3 | 27.1 | 23.8
HPLM + 10% dialyzed FBS, 5.12 µM | 42.8 | 13.8 | 26.2
HPLM + 10% dialyzed FBS, 15.4 µM | 37.3 | 16.2 | 23
HPLM + 10% dialyzed FBS, 46.1 µM | 47.7 | 11 | 16.1
RPMI 5 mM glucose + 10% FBS, 0.000781 µM | 102 | 99.7 | 80
RPMI 5 mM glucose + 10% FBS, 0.00234 µM | 109 | 112 | 81.5
RPMI 5 mM glucose + 10% FBS, 0.00702 µM | 120 | 101 | 87.2
RPMI 5 mM glucose + 10% FBS, 0.0211 µM | 110 | 106 | 75.5
RPMI 5 mM glucose + 10% FBS, 0.0632 µM | 99.8 | 92.6 | 52.4
RPMI 5 mM glucose + 10% FBS, 0.19 µM | 34.2 | 17.6 | 16.4
RPMI 5 mM glucose + 10% FBS, 0.569 µM | 26.1 | 16.8 | 15.6
RPMI 5 mM glucose + 10% FBS, 1.71 µM | 24.4 | 26.7 | 14.5
RPMI 5 mM glucose + 10% FBS, 5.12 µM | 25.8 | 24.1 | 18
RPMI 5 mM glucose + 10% FBS, 15.4 µM | 23.8 | 22.2 | 13.1
RPMI 5 mM glucose + 10% FBS, 46.1 µM | 24.2 | 16.5 | 10.8
RPMI 5 mM glucose + 10% dialyzed FBS, 0.000781 µM | 94.2 | 92.4 | 98.8
RPMI 5 mM glucose + 10% dialyzed FBS, 0.00234 µM | 96.6 | 98.4 | 95.8
RPMI 5 mM glucose + 10% dialyzed FBS, 0.00702 µM | 101 | 103 | 102
RPMI 5 mM glucose + 10% dialyzed FBS, 0.0211 µM | 95.3 | 102 | 77.2
RPMI 5 mM glucose + 10% dialyzed FBS, 0.0632 µM | 101 | 97.5 | 56.9
RPMI 5 mM glucose + 10% dialyzed FBS, 0.19 µM | 37.1 | 31 | 23.5
RPMI 5 mM glucose + 10% dialyzed FBS, 0.569 µM | 29.1 | 25.7 | 18.2
RPMI 5 mM glucose + 10% dialyzed FBS, 1.71 µM | 27.4 | 37.7 | 20.8
RPMI 5 mM glucose + 10% dialyzed FBS, 5.12 µM | 31.6 | 27.9 | 23.6
RPMI 5 mM glucose + 10% dialyzed FBS, 15.4 µM | 34.1 | 29.3 | 19.4
RPMI 5 mM glucose + 10% dialyzed FBS, 46.1 µM | 31.8 | 23.1 | 12.4

AUC of viability dose-response curve
Conditions | HPLM + 10% dialyzed FBS | RPMI 5 mM glucose + 10% FBS | RPMI 5 mM glucose + 10% dialyzed FBS
[4] | 304 | 273 | 293
[5] | 252 | 261 | 289
